The source of these data is patent US10696651B2, “Heterocyclic compound” (Takeda Pharmaceutical Company Limited, priority 2016, dated 2020).

Assay [1] concerns ATF4 expression in human acute lymphoblastic leukemia cell line CCRF-CEM. The assay can be described thus: In vitro ATF4 expression suppression assay (Western blot) in the presence of L-asparaginase. The format is cell-based. Particulars: compound concentration 400 nM, L-asparaginase 0.1 U/mL, 4 hr. How it is done: A cell suspension (40 μL) (500000 cells/well) of human acute lymphoblastic leukemia cell line CCRF-CEM obtained from ATCC (American Type Culture Collection) was seeded on a 12 well plate using RPMI1640 medium. The seeded cells were incubated (37° C., 5% CO2) overnight to 24 hr at the longest. L-asparaginase (Sigma-Aldrich Co. LLC.) was dissolved in PBS and treated in each well to a final concentration of 0.1 U/mL. Furthermore, each test compound was dissolved (10 mM) in DMSO, delivered to wells by using TECAN HP D300 (TECAN), and the plate was incubated for 4 hr (37° C., 5% CO2). A well without addition of compound was treated similarly as a control group. […]
(§1) Protein extract solution was subjected to protein quantification with BCA Protein Assay Kit (Thermo Scientific), electrophoresed on 7.5-15% SDS-PAGE gel (DRC), and protein in the gel was transferred to PVDF membrane. […] Thereafter, chemiluminescence was performed using ImmunoStar LD (Wako Pure Chemical Industries, Ltd.), and luminescence intensity was measured by LAS-3000 image analyzer (Fuji Film Co., Ltd.). Furthermore, the expression level of ATF4 was digitized by quantifying the luminescence intensity using Multi Gauge Ver. […]

The subject of assay [2] is ATF4 expression in CCRF-CEM tumor. The assay is described as follows: In vivo ATF4 expression suppression assay (Western blot of CCRF-CEM xenograft tumor) in the presence of L-asparaginase. The note with it: compound 10 mg/kg oral 8 hr before tumor removal, L-asparaginase 1000 U/kg s.c. 32 hr and 8 hr before, CCRF-CEM xenograft in SCID mouse.
Excerpt: One million human acute lymphoblastic leukemia cell lines CCRF-CEM obtained from ATCC (American Type Culture Collection) were suspended in Matrigel solution (Corning) and implanted subcutaneously into 6-week-old female SCID mouse (CLEA Japan, Inc.) by injection. The mice in which the tumor engrafted to a size of about 200-1000 mm^3 tumor volume after transplantation were selected and 3 mice per group were used for the experiment. L-asparaginase (Kyowa Hakko Kogyo Co., Ltd.) was subcutaneously administered at a dose of 1000 U/kg 32 hr and 8 hr before tumor removal. A 0.5% methylcellulose suspension of the compound was orally administered at a dose of 10 mg/kg 8 hr before tumor removal. After tumor removal, protein was extracted using Lysing Matrix I tube (MP Biomedicals) containing a protein extract (10% glycerol, 1% sodium dodecyl sulfate, 62.5 mM Tris-HCl [pH 7.5], protease and phosphatase inhibitors [Complete mini and PhosSTOP, Sigma-Aldrich Co. LLC.]) and subjected to Western blot.
as §1, with “membrane. The membrane was blocked with Starting Block T20 (PBS) Blocking Buffer (Thermo Scientific).” for “membrane.”
Based on the ATF4 expression level of the control group orally administered with 0.5% methylcellulose suspension free of Example compound and the treatment group orally administered with Example compound suspension, the ATF4 expression inhibition ratio (%) of the test compound at a compound dose 10 mg/kg was calculated by the following formula and the results thereof are shown in Table 6. […]

Molecules are shown by their SMILES.

In the case of `Nc1ncc(C#Cc2c(F)ccc(NS(=O)(=O)c3cc(Cl)cc(CO)c3Cl)c2F)cn1` [Example 4, N-(3-((2-aminopyrimidin-5-yl)ethynyl)-2,4-difluorophenyl)-2,5-dichloro-3-(hydroxymethyl)benzenesulfonamide], in assay [1], the “in vitro ATF4 expression inhibition ratio (%)” value is listed as 97%. In addition, the “in vivo ATF4 expression inhibition ratio (%)” value in assay [2] is 76%.

Take `COc1ncc(Cl)cc1S(=O)(=O)Nc1ccc(F)c(C#Cc2cnc(N)nc2)c1F` [Example 7, N-(3-((2-aminopyrimidin-5-yl)ethynyl)-2,4-difluorophenyl)-5-chloro-2-methoxypyridine-3-sulfonamide]: in assay [1], the “in vitro ATF4 expression inhibition ratio (%)” value is 97%. Further, the “in vivo ATF4 expression inhibition ratio (%)” value in assay [2] was 74%.
